Results as given in patent publication US12247010B2, “Tubulin inhibitors” (LIN BIOSCIENCE PTY LTD., priority 2017, dated 2025).

Test system: U87MG cells
Experiment: Cytotoxicity assay (cell viability, CellTiter 96 Aqueous MTS)
Assay type: cell-based
Conditions: Homo sapiens, U-87 MG, 72 h, 72 hours incubation, starting concentration 50 uM, 9 point half log dilution, average where tested repeatedly
How it was run: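 U87MG cells plated at 7×10^3 cells/well overnight, then treated 72 h with 9-point half-log dilutions from a 50 uM starting concentration. Viability measured with CellTiter 96 Aqueous MTS; IC50 calculated from viability.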

O=C(CCCc1ccc(-c2ccc3[nH]ncc3c2)cc1)Nc1cccnc1 [Compound 206, 4-(4-(1H-indazol-5-yl)phenyl)-N-(pyridin-3-yl)butanamide]
IC50: < 0.5 µM

O=C(CCCc1ccc(-c2ccc3[nH]c(=O)oc3c2)cc1)Nc1cccnc1 [Compound 208, 4-(4-(2-oxo-2,3-dihydrobenzo[d]floxazol-6-yl)phenyl)-N-(pyridin-3-yl)butanamide]
IC50: 1 to 5 µM

O=C(CCCc1ccc(-c2cc3cn[nH]c3cc2F)cc1)Nc1cccnc1 [Compound 209, 4-(4-(6-fluoro-1H-indazol-5-yl)phenyl)-N-(pyridin-3-yl)butanamide]
IC50: < 0.5 µM

O=C(CCCc1ccc(-c2cnc3[nH]ncc3c2)cc1)Nc1cccnc1 [Compound 210, 4-(4-(1H-pyrazolo[3,4-b]pyridin-5-yl)phenyl)-N-(pyridin-3-yl)butanamide]
IC50: < 0.5 µM

O=C(CCCc1ccc(-c2cnc3c(c2)CCC(=O)N3)cc1)Nc1cccnc1 [Compound 211, 4-(4-(7-oxo-5,6,7,8-tetrahydro-1,8-naphthyridin-3-yl)phenyl)-N-(pyridin-3-yl)butanamide]
IC50: 1 to 5 µM

O=C(CCCc1ccc(-c2ccc3[nH]ccc3c2)cc1)Nc1cccnc1 [Compound 213, 4-(4-(1H-indol-5-yl)phenyl)-N-(pyridin-3-yl)butanamide]
IC50: < 0.5 µM

Cc1nn(C)c(C)c1-c1ccc(CCCC(=O)Nc2cccnc2)cc1 [Compound 216, N-(pyridin-3-yl)-4-(4-(1,3,5-trimethyl-1H-pyrazol-4-yl)phenyl)butanamide]
IC50: > 5 µM

O=C(CCCc1ccc(-c2cscn2)cc1)Nc1cccnc1 [Compound 217, N-(pyridin-3-yl)-4-(4-(thiazol-4-yl)phenyl)butanamide]
IC50: > 5 µM

CCOc1cccc(-c2ccc(CCCC(=O)Nc3cccnc3)cc2)c1F [Compound 218, 4-(3′-ethoxy-2′-fluoro-[1,1′-biphenyl]-4-yl)-N-(pyridin-3-yl)butanamide]
IC50: < 0.5 µM

Cc1cccc(-c2ccc(CCCC(=O)Nc3cccnc3)cc2)c1F [Compound 219, 4-(2′-fluoro-3′-methyl-[1,1′-biphenyl]-4-yl)-N-(pyridin-3-yl)butanamide]
IC50: < 0.5 µM

O=C(CCCc1ccc(-c2cccc(C(F)(F)F)c2F)cc1)Nc1cccnc1 [Compound 220, 4-(2′-fluoro-3′-(trifluoromethyl)-[1,1′-biphenyl]-4-yl)-N-(pyridin-3-yl)butanamide]
IC50: < 0.5 µM

N#Cc1cccc(-c2ccc(CCCC(=O)Nc3cccnc3)cc2)c1F [Compound 221, 4-(3′-cyano-2′-fluoro-[1,1′-biphenyl]-4-yl)-N-(pyridin-3-yl)butanamide]
IC50: 1 to 5 µM

O=C(CCCc1ccc(-c2ccc3c(c2)CC(=O)N3)cc1)Nc1cccnc1 [Compound 222, 4-(4-(2-oxoindolin-5-yl)phenyl)-N-(pyridin-3-yl)butanamide]
IC50: < 0.5 µM

O=C(CCCc1ccc(-c2ccc3[nH]cnc(=O)c3c2)cc1)Nc1cccnc1 [Compound 223, 4-(4-(4-oxo-1,4-dihydroquinazolin-6-yl)phenyl)-N-(pyridin-3-yl)butanamide]
IC50: > 5 µM

O=C(CCCc1ccc(-c2ccc3c(c2)OCC(=O)N3)cc1)Nc1cccnc1 [Compound 224, 4-(4-(3-oxo-3,4-dihydro-2H-benzo[b][1,4]oxazin-7-triazoloyl)phenyl)-N-(pyridin-3-yl)butanamide]
IC50: < 0.5 µM

O=C(CCCc1ccc(-c2cccc(Cl)c2F)cc1)Nc1cccnc1 [Compound 225, 4-(3′-chloro-2′-fluoro-[1,1′-biphenyl]-4-yl)-N-(pyridin-3-yl)butanamide]
IC50: > 5 µM

Cc1cc(C(=O)NCCCc2ccc(-c3ccc4c(cnn4C)c3)cc2)no1 [Compound 227, 5-methyl-N-(3-(4-(1-methyl-1H-indazol-5-yl)phenyl)propyl)isoxazole-3-carboxamide]
IC50: < 0.5 µM

Cc1cc(C(=O)NCCCc2ccc(-c3ccc4[nH]ncc4c3C)cc2)n(C)n1 [Compound 228, 1,3-dimethyl-N-(3-(4-(4-methyl-1H-indazol-5-yl)phenyl)propyl)-1H-pyrazole-5-carboxamide]
IC50: < 0.5 µM

Cc1ccc(C(=O)NCCCc2ccc(-c3cnc4[nH]ccc4c3)cc2)cn1 [Compound 229, N-(3-(4-(1H-pyrrolo[2,3-b]pyridin-5-yl)phenyl)propyl)-6-methylnicotinamide]
IC50: < 0.5 µM

Cn1ncc2cc(-c3ccc(CCCNC(=O)c4cncnc4)cc3)ccc21 [Compound 231, N-(3-(4-(1-methyl-1H-indazol-5-yl)phenyl)propyl)pyrimidine-5-carboxamide]
IC50: < 0.5 µM

COc1cccc(-c2ccc(CCCNC(=O)c3ccc(C)nc3)cc2)c1F [Compound 234, N-(3-(2′-fluoro-3′-methoxy-[1,1′-biphenyl]-4-yl)propyl)-6-methylnicotinamide]
IC50: < 0.5 µM

Cc1cc(C(=O)NCCCc2ccc(-c3cnc4[nH]ccc4c3)cc2)no1 [Compound 235, N-(3-(4-(1H-pyrrolo[2,3-b]pyridin-5-yl)phenyl)propyl)-5-methylisoxazole-3-carboxamide]
IC50: < 0.5 µM

Cc1cc(C(=O)NCCCc2ccc(-c3ccc4c(cnn4C)c3)cc2)n(C)n1 [Compound 236, 1,3-dimethyl-N-(3-(4-(1-methyl-1H-indazol-5-yl)phenyl)propyl)-1H-pyrazole-5-carboxamide]
IC50: < 0.5 µM

Cc1ccc(C(=O)NCCCc2ccc(-c3ccc4ncccc4c3)cc2)cn1 [Compound 237, 6-methyl-N-(3-(4-(quinolin-6-yl)phenyl)propyl)nicotinamide]
IC50: < 0.5 µM

COc1cccc(-c2ccc(CCCNC(=O)c3cc(C)nn3C)cc2)c1F [Compound 238, N-(3-(2′-fluoro-3′-methoxy-[1,1′-biphenyl]-4-yl)propyl)-1,3-dimethyl-1H-pyrazole-5-carboxamide]
IC50: 0.501 to 1 µM

COc1cccc(-c2ccc(CCCNC(=O)c3cc(C)on3)cc2)c1F [Compound 240, N-(3-(2′-fluoro-3′-methoxy-[1,1′-biphenyl]-4-yl)propyl)-5-methylisoxazole-3-carboxamide]
IC50: 0.501 to 1 µM

Cc1ncccc1C(=O)NCCCc1ccc(-c2ccc3c(cnn3C)c2)cc1 [Compound 241, 2-methyl-N-(3-(4-(1-methyl-1H-indazol-5-yl)phenyl)propyl)nicotinamide]
IC50: < 0.5 µM

Cc1cc(C(=O)NCCCc2ccc(-c3ccc4ncccc4c3)cc2)n(C)n1 [Compound 242, 1,3-dimethyl-N-(3-(4-(quinolin-6-yl)phenyl)propyl)-1H-pyrazole-5-carboxamide]
IC50: < 0.5 µM

COc1ccc(CC(=O)NCCCc2ccc(-c3ccc4c(cnn4C)c3)cc2)cc1 [Compound 244, 2-(4-methoxyphenyl)-N-(3-(4-(1-methyl-1H-indazol-5-yl)phenyl)propyl)acetamide]
IC50: < 0.5 µM

COc1ccc(CC(=O)NCCCc2ccc(-c3cccc(OC)c3F)cc2)cc1 [Compound 245, N-(3-(2′-fluoro-3′-methoxy-[1,1′-biphenyl]-4-yl)propyl)-2-(4-methoxyphenyl)acetamide]
IC50: 0.501 to 1 µM

COc1ccc(CC(=O)NCCCc2ccc(-c3ccc4ncccc4c3)cc2)cc1 [Compound 246, 2-(4-methoxyphenyl)-N-(3-(4-(quinolin-6-yl)phenyl)propyl)acetamide]
IC50: < 0.5 µM

COc1ccc(CC(=O)NCCCc2ccc(-c3ccc4[nH]ncc4c3C)cc2)cc1 [Compound 247, 2-(4-methoxyphenyl)-N-(3-(4-(4-methyl-1H-indazol-5-yl)phenyl)propyl)acetamide]
IC50: < 0.5 µM

COc1cccc(-c2ccc(CCCNC(=O)c3cncnc3)cc2)c1F [Compound 248]
IC50: 0.501 to 1 µM

O=S(=O)(NCCCc1ccc(-c2ccccc2F)cc1)c1cccnc1 [Compound 262, N-(3-(2′-fluoro-[1,1′-biphenyl]-4-yl)propyl) pyridine-3-sulfonamide]
IC50: 1 to 5 µM

Cn1cnc(S(=O)(=O)NCCCc2ccc(-c3ccccc3F)cc2)c1 [Compound 263, N-(3-(2′-fluoro-[1,1′-biphenyl]-4-yl)propyl)-1-methyl-1H-imidazole-4-sulfonamide]
IC50: 1 to 5 µM

O=C(Nc1ccc2[nH]ccc2c1)OCCc1ccc(-c2ccccc2F)cc1 [Compound 272, 2-(2′-fluoro-[1,1′-biphenyl]-4-yl)ethyl (1H-indol-5-yl)carbamate]
IC50: > 5 µM

COc1ccc(CNC(=O)OCCc2ccc(-c3ccccc3F)cc2)cc1 [Compound 273, 2-(2′-fluoro-[1,1′-biphenyl]-4-yl)ethyl (4-methoxybenzyl)carbamate]
IC50: > 5 µM

Cc1ccc(NC(=O)OCCc2ccc(-c3ccccc3F)cc2)cn1 [Compound 274, 2-(2′-fluoro-[1,1′-biphenyl]-4-yl)ethyl (6-methylpyridin-3-yl)carbamate]
IC50: > 5 µM

COc1cccc(-c2ccc(CC(C)(C)CNC(=O)c3ccc(C)nc3)cc2)c1F [Compound 276, N-(3-(2′-fluoro-3′-methoxy-[1,1′-biphenyl]-4-yl)-2,2-dimethylpropyl)-6-methylnicotinamide]
IC50: 1 to 5 µM

Cc1ccc(C(=O)NCC(C)(C)Cc2ccc(-c3ccc4c(cnn4C)c3)cc2)cn1 [Compound 277, N-(2,2-dimethyl-3-(4-(1-methyl-1H-indazol-5-yl)phenyl)propyl)-6-methylnicotinamide]
IC50: 0.501 to 1 µM

O=C(Nc1cccnc1)N1CCN(c2ccc(-c3ccccc3F)cc2)CC1 [Compound 278, 4-(2′-fluoro-[1,1′-biphenyl]-4-yl)-N-(pyridin-3-yl)piperazine-1-carboxamide]
IC50: 1 to 5 µM

Cc1ccc(NC(=O)N2CCN(c3ccc(-c4ccccc4F)cc3)CC2)cn1 [Compound 279, 4-(2′-fluoro-[1,1′-biphenyl]-4-yl)-N-(6-methylpyridin-3-yl)piperazine-1-carboxamide]
IC50: 0.501 to 1 µM

O=C(Nc1cn[nH]c1)N1CCN(c2ccc(-c3ccccc3F)cc2)CC1 [Compound 281, 4-(2′-fluoro-[1,1′-biphenyl]-4-yl)-N-(1H-pyrazol-4-yl)piperazine-1-carboxamide]
IC50: > 5 µM

Cc1ccc(C(=O)NCCOc2ccc(-c3ccccc3F)cc2)cn1 [Compound 282, N-(2-((2′-fluoro-[1,1′-biphenyl]-4-yl)oxy)ethyl)-6-methylnicotinamide]
IC50: > 5 µM
